Results: PubChem BioAssay (NCI)
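How tested: cells in 96-well plates exposed to compound for 48 hours at five concentrations. TGI marks complete inhibition of growth.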

Tests used:
Experiment in all cases: NCI tumour cell line growth inhibition, 48 h
[1] = tested on: ACHN renal
[2] = tested on: COLO 205 colon
[3] = tested on: HCC-2998 colon
[4] = tested on: NCI-H226 lung
[5] = tested on: OVCAR-4 ovarian
[6] = tested on: SF-539 CNS
[7] = tested on: SK-MEL-2 melanoma
[8] = tested on: SW-620 colon

Q: What does the source list for `CC(CC[C@@]1(O)OC2C[C@H]3[C@@H]4CC[C@H]5CC(OC6OC(CO)C(OC7OC(CO)C(O)C(OC8OCC(O)C(O)C8O)C7OC7OC(CO)C(O)C(O)C7O)C(O)C6O)[C@H](O)CC5(C)[C@H]4CCC3(C)C2[C@@H]1C)COC1OC(CO)C(O)C(O)C1O` (some centres undefined)?
A: TGI [1]: > 50 µM; TGI [2]: 31 µM; TGI [3]: 34.2 µM; TGI [4]: 28.8 µM; TGI [5]: 36.9 µM; TGI [6]: 10.7 µM; TGI [7]: 31.6 µM; TGI [8]: > 50 µM

Q: Which results are given for `CCNC(=S)NNC(=O)CSc1nc2ccc(I)cc2c(=O)n1Cc1ccccc1`?
A: TGI [1]: > 24.4 µM; TGI [2]: > 100 µM; TGI [3]: > 85.7 µM; TGI [4]: > 95.5 µM; TGI [5]: > 95.5 µM; TGI [6]: > 100 µM; TGI [7]: > 94.9 µM; TGI [8]: > 100 µM

Q: How did the TGI [2] turn out when `CCOC(=O)C1(C(=O)OCC)C=C(c2ccccc2)N(C2OC(COC(C)=O)C(OC(C)=O)C(OC(C)=O)C2OC(C)=O)C1=S` (centres undefined) was run?
A: > 100 µM

Q: And the TGI [3]?
A: > 100 µM

Q: What about the TGI [4] of the same compound?
A: > 100 µM

Q: And the TGI [5]?
A: > 100 µM

Q: What about the TGI [6] of the same compound?
A: > 100 µM

Q: What about the TGI [7] of the same compound?
A: > 100 µM

Q: What about the TGI [8] of the same compound?
A: > 100 µM

Q: For `COc1cc(S(=O)(=O)Nc2ccc(-c3csc(N4C(=O)C(Cl)C4c4cccs4)n3)cc2)ccc1Cl` (centres undefined), which TGI [1] is on record?
A: > 100 µM

Q: And the TGI [2]?
A: > 100 µM

Q: What about the TGI [3] of the same compound?
A: > 100 µM

Q: And the TGI [4]?
A: > 100 µM

Q: What about the TGI [5] of the same compound?
A: 77.5 µM

Q: What about the TGI [6] of the same compound?
A: > 100 µM

Q: And the TGI [7]?
A: > 100 µM

Q: What about the TGI [8] of the same compound?
A: > 100 µM

Q: Which TGI [2] does the source give for `Cc1cc(C)nc(NS(=O)(=O)c2ccc(NC(=O)c3cc([N+](=O)[O-])cc([N+](=O)[O-])c3)cc2)n1` here?
A: 45.7 µM

Q: What about the TGI [4] of the same compound?
A: > 100 µM

Q: And the TGI [5]?
A: > 100 µM

Q: What about the TGI [6] of the same compound?
A: > 100 µM

Q: What about the TGI [7] of the same compound?
A: > 100 µM

Q: What about the TGI [8] of the same compound?
A: > 100 µM

Q: With `O=c1[nH]c(=O)n([C@@H]2O[C@H](CO)[C@@H](O)[C@@H]2F)cc1I` as the compound, how does the TGI [1] read?
A: > 100 µM

Q: What about the TGI [2] of the same compound?
A: > 100 µM

Q: What about the TGI [3] of the same compound?
A: > 100 µM

Q: What about the TGI [4] of the same compound?
A: > 100 µM

Q: And the TGI [5]?
A: > 100 µM

Q: And the TGI [6]?
A: > 100 µM

Q: What about the TGI [8] of the same compound?
A: > 100 µM

Q: Which TGI [1] does the source give for `COC(=O)[C@H](Cc1c[nH]c2ccccc12)NC(=O)c1ccccc1I` here?
A: 30.8 µM

Q: What about the TGI [2] of the same compound?
A: 33.3 µM

Q: And the TGI [3]?
A: 82.6 µM

Q: And the TGI [4]?
A: 82.2 µM

Q: What about the TGI [5] of the same compound?
A: > 100 µM

Q: And the TGI [7]?
A: 45.8 µM

Q: What about the TGI [8] of the same compound?
A: > 100 µM

Q: How did the TGI [1] turn out when `NC(N)=N/N=C/c1c(-c2cc([N+](=O)[O-])c(Cl)cc2Cl)nc2n1CCS2` was run?
A: > 100 µM

Q: What about the TGI [3] of the same compound?
A: 5.4 µM

Q: And the TGI [4]?
A: 92.5 µM

Q: And the TGI [5]?
A: 33.9 µM

Q: What about the TGI [6] of the same compound?
A: > 100 µM

Q: And the TGI [7]?
A: 9.45 µM

Q: And the TGI [8]?
A: > 100 µM

Q: With `CC(=O)n1nc(-c2ccc3ccccc3c2)nc1C` as the compound, how does the TGI [1] read?
A: > 100 µM

Q: And the TGI [2]?
A: > 100 µM

Q: What about the TGI [3] of the same compound?
A: > 100 µM

Q: What about the TGI [5] of the same compound?
A: > 100 µM

Q: What about the TGI [6] of the same compound?
A: > 100 µM

Q: And the TGI [7]?
A: > 100 µM

Q: And the TGI [8]?
A: > 100 µM

Q: Which TGI [1] does the source give for `C=C(C)C(=O)OC1C[C@H](COC(C)=O)C2CC=C(CO)C2C2OC(=O)C(=C)[C@H]12` (some centres undefined) here?
A: > 100 µM

Q: And the TGI [2]?
A: 30 µM

Q: And the TGI [3]?
A: > 100 µM

Q: And the TGI [4]?
A: > 100 µM

Q: And the TGI [6]?
A: > 100 µM

Q: What about the TGI [7] of the same compound?
A: > 100 µM

Q: What about the TGI [8] of the same compound?
A: 40 µM

Q: Which results are given for `COc1cc(OC)c(OC)cc1/C=C/c1cc[n+](C)c2ccccc12`?
A: TGI [1]: > 100 µM; TGI [2]: 19 µM; TGI [3]: > 100 µM; TGI [5]: > 100 µM; TGI [8]: > 100 µM

Q: Which TGI [1] does the source give for `Cc1nc(Nc2ccc(Cl)c(Cl)c2)sc1C(=O)/C=C/c1ccc2c(c1)OCO2` here?
A: 45.1 µM

Q: What about the TGI [2] of the same compound?
A: 60.6 µM

Q: What about the TGI [3] of the same compound?
A: 88.1 µM

Q: What about the TGI [4] of the same compound?
A: 62 µM

Q: And the TGI [5]?
A: 33.9 µM

Q: What about the TGI [6] of the same compound?
A: 61.7 µM

Q: What about the TGI [8] of the same compound?
A: > 100 µM
